The values below come from article PMC9367601 (Cancers, 2022).

Test [1] addresses Epidermal Growth Factor Receptor (EGFR) (Homo sapiens, UniProt P00533). Kind of test: PathHunter cell-based EGFR dimerization assay, dose-response.
For test [2], the target named is T1, Epidermal Growth Factor Receptor (EGFR), extracellular domain (EGFR-ECD) (Homo sapiens, UniProt P00533).
T1 construct: full-length EGFR in DiscoverX PathHunter enzyme-complementation cells, EGF-stimulated
The test can be described thus: SPR competition: dose-dependent decrease of EGF binding to immobilized EGFR-ECD (no SPR value printed); the IC50 is from the PathHunter cell EGFR dimerization assay. The test is classed as cell-based.

Test [3] has as its target T1, Epidermal Growth Factor Receptor (EGFR), extracellular domain (EGFR-ECD). The test can be described thus: cell-based. Set-up: DiscoverX PathHunter EGFR dimerization/activation assay, chemiluminescence. How it is done: The inhibition of the EGFR dimerization assay was conducted using the PathHunter kit following the producer instructions and with cetuximab as a positive control. For IC50 determination, the selected compounds were tested at different concentration (range 0.1–100 µM) and the IC50 values were calculated by the four parameters logistic (4-PL) model. Evaluation was based on means from at least four independent experiments. The discovery of orally available small molecules able to impair the EGFR activation targeting the extracellular domain could be of great interest for cancer treatment. To pursue this goal, a suitable high/medium throughput screening method is required. In this respect, a commercially available kit (PathHunter® from DiscoverX©; San Francisco, CA, USA) for the screening of compounds able to prevent EGFR activation (either dimerization or autophosphorylation) has been developed in recent years. This assay measures the chemiluminescent signal produced as a consequence of ligand-induced dimerization/activation of EGFR [16]. Our interest in kinase inhibitors and the readily availability of such kit prompted us to start a campaign for the discovery of small molecules targeting the extracellular domain of EGFR.

The term IC50 denotes the midpoint of a concentration-inhibition curve. The low end stands for inhibition by little substance, the high end for a need for much substance. A word on the inhibition: it is the relative decrease from the control value, in per cent. A low value points to little suppression.

T1 sequence (P00533 25-1210): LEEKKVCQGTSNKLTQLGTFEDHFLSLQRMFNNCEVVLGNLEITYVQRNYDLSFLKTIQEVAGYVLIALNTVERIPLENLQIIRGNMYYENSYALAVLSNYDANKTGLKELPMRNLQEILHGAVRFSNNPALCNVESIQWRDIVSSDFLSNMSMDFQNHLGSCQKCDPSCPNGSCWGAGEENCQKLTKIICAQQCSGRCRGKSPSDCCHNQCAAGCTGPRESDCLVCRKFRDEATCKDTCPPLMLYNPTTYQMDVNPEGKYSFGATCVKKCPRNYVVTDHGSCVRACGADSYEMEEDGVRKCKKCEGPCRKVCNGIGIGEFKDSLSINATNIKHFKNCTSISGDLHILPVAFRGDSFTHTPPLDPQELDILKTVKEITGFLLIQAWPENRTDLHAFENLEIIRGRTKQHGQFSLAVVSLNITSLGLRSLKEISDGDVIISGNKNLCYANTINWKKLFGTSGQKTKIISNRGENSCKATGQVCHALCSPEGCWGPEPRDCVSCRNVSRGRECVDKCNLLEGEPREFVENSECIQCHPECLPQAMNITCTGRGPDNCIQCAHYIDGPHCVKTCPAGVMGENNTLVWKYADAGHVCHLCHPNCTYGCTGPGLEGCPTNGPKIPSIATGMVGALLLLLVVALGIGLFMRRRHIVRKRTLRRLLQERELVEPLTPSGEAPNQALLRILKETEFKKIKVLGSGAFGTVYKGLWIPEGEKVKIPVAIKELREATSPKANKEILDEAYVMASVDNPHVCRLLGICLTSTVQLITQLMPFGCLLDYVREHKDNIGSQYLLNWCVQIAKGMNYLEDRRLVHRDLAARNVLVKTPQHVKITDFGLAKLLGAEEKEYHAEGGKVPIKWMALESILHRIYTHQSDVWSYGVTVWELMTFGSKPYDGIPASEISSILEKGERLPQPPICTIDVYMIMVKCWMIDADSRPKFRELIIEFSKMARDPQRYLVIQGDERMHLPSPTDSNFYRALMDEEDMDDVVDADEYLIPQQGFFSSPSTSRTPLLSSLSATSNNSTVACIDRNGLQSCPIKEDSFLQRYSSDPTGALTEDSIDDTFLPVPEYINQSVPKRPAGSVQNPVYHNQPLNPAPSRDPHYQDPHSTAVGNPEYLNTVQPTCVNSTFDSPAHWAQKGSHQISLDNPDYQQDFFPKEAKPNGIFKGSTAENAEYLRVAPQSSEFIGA
Sequence of Epidermal Growth Factor Receptor (EGFR) (P00533 25-1210): as above

In test [1], `O=C1Nc2cc(Cl)c(F)cc2C1=Nc1cccc(C(F)(F)F)c1` [DSF-099] returned an IC50 of 27.7 ± 4.5 µM.

For the compound `O=C1Nc2ccc(Br)cc2C1=Nc1cccc(C(F)(F)F)c1` [DSF-097], the IC50 in test [1] came to 38.8 ± 3.6 µM. The IC50 values of the last two compounds are within 1.5-fold of each other.

Regarding `O=C1Nc2ccc([N+](=O)[O-])cc2C1=Nc1cccc(C(F)(F)F)c1` [DSF-102], the IC50 in test [2] turned out to be 13.2 ± 2.1 µM.

Take `O=C(O)c1ccc(-c2cc(-c3cccc(C(F)(F)F)c3)nc(O)n2)cc1` [DSF024]: in test [3], at 10 µM the inhibition was 16 ± 1% and the inhibition at 50 µM stood at 5 ± 3%.

In test [3], `CCOC(=O)c1ccc(NS(=O)(=O)c2ccc(Cl)cc2[N+](=O)[O-])cc1` [DSF087] gave an inhibition at 10 µM of 2 ± 3% and an inhibition at 50 µM of 36 ± 4%.

As for `Cc1c(C)c2cc3c4c(oc3c(O)c2oc1=O)CCCC4` [DSF054], in test [3], the inhibition at 10 µM was 8 ± 4% and testing at 50 µM gave an inhibition of 46 ± 4%.

In test [3], `Cc1c(CC(=O)Nc2ccc(C(N)=O)cc2)c(=O)oc2c(C)c3oc4c(c3cc12)CCCC4` [DSF053] displayed an inhibition at 10 µM of 39 ± 5% and an inhibition at 50 µM of 43 ± 1%.

For `Nc1cccc(-c2cc(-c3ccccc3)ncn2)c1` [DSF022], in test [3], testing at 10 µM gave an inhibition of 0% and at 50 µM the inhibition was 4 ± 4%.
